The record followed here is patent publication US20240389599A1, “Antimicrobial Material Comprising a Tetraalkylphosphonium Ionic Liquid and Metal Nanoparticles” (University of Windsor, priority 2023, published 2024).

Some results are limits rather than exact numbers.

What all share (assay type): cell-based
In assay [1] the test system is E. coli. Nature of the assay: resazurin-based MIC/MBC screen of the TAPILs. From the text: (§1) The MIC evaluation of the three TAPILs is shown with E. coli (a) and S. aureus (b) as the microorganism under study, using resazurin as an indicator of bacterial viability. The numbers on the right correspond to the TAPILs—i.e. “1” stands for TAPIL-1. The MIC and MBC values (c) are shown for the three TAPILs deployed against E. coli and S. aureus as representative microorganisms.
(§2) The three TAPILs were screened against E. coli and S. aureus according to standard procedures (FIG. 2). The bacteria were selected as they are the representative strains (gram negative and positive, respectively) used for European Union regulations in the evaluation of disinfectants. A standard resazurin-based assay was employed: A blue well indicates non-viable bacteria, while a pink one indicates bacterial viability. The MIC and the MBC values are summarized.
Background: Alamar Blue is a resazurin reagent that responds to reducing activity.

Assay [2] has as its system S. aureus. Put plainly: resazurin-based MIC/MBC screen of the TAPILs. The note with it: resazurin assay.
From the text: as §1, §2

Assay [3] in a line: MIC/MBC of TAPIL-2 monitored upon ambient storage open to the atmosphere. The following applies: 3 weeks ambient storage open to the atmosphere. From the text:
The presence of one longer alkyl chain on the central phosphorus is believed to be preferred for anti-microbial activity since symmetrical TAPILs with four identical alkyl substituents around the phosphorus atom are likely to interact less strongly with the cell membrane to induce cell death. The MIC/MBC values of TAPIL-2 were monitored over a period of 3 weeks upon ambient storage open to the atmosphere. No change in its antimicrobial activity was detected.

Regarding `CCCCCCCCCCCCCC[P+](CCCCCC)(CCCCCC)CCCCCC.[Cl-]` [TAPIL-1], the “antibacterial properties (in words)” value in assay [1] (resazurin assay) and in assay [2] was “bacteriostatic properties at intermediate concentrations” each time.
Take `CCCCCCCC[P+](CCCCCC)(CCCCCC)CCCCCC.[Cl-]` [TAPIL-2]: the “change in antimicrobial activity (MIC/MBC values)” value in assay [3] was “No change”. Besides, the “Minimum Bactericidal Concentration (MBC)” value in assay [1] was below 65 µg/mL.
For the compound `CCCCCCCCCCCCCC[P+](CCCCCC)(CCCCCC)CCCCCC.O=S(=O)([N-]S(=O)(=O)C(F)(F)F)C(F)(F)F` [TAPIL-3], the “concentration up to which no anti-bacterial effects are shown (MIC/MBC)” value in assay [1] (resazurin assay) and in assay [2] was above 2000 µg/mL each time.
